Common to all, as to test: Oxford cup inhibition zone test of antibacterial Hermetia illucens peptide
Common to all, as to type: cell-based
What all share (conditions): positive control, 1 mg/ml of chloramphenicol

One test has as its system Escherichia coli. An excerpt:
(§1) Article number (Art. No.) of Staphylococcus aureus: CICC 10306; Art. No. of Escherichia coli: CICC 10372; Art. No. of Vibrio alginolyticus: CICC 10484.
(§2) 1. Extraction of the Antibacterial Peptide of the Larval Hermetia Illucens Paste
(§3) (1) Preparation of an antibacterial peptide extraction solution (10% acetic acid and 0.01 mol/L Na2EDTA).
(§4) (2) The fermentation liquor of larval Hermetia illucens paste in the untreated group and the Aspergillus oryzae fermentation group of Example 2 was mixed with the antibacterial peptide extraction solution well (v: v=1:10), respectively, and liquid-solid extracted for half an hour at 200 rpm and 37° C., then transferred to a centrifugal machine (3500 rpm, 25 min); supernatant was collected as a crude extraction solution of the antibacterial peptide. The crude extraction solution was further frozen-dried to obtain the antibacterial Hermetia illucens peptide.
(§5) 2. Determination of Antibacteral Activity of the Antibacterial Hermetia Illucens Peptide
(§6) […] The concentration of the Staphylococcus aureus solution and Escherichia coli solution as well as Vibrio alginolyticus solution was determined 1.0×10^9 CFU/mL, 1.0×10^9 CFU/mL, and 1.0×10^7 CFU/mL, respectively; proper amount of the Staphylococcus aureus solution and Escherichia coli solution were absorbed and evenly coated on LB media, and the Vibrio alginolyticus solution was coated on a TCBS plate. An Oxford cup having a diameter of 7.5 mm was slightly placed on the LB plate, added with an equivalent amount of the antibacterial Hermetia illucens peptide, and cultured in a 37° C. thermostatic incubator for 10 hours, then the diameter of inhibition zones was observed and measured.

The test system of another test is Staphylococcus aureus.
From the text: as §1, §2, §3, §4, §5, §6

For the next test, the system named is Vibrio alginolyticus.
From the text: as §1, §2, §3, §4, §5, §6

The structures appear in SMILES notation.

For `O=C(N[C@H](CO)[C@H](O)c1ccc([N+](=O)[O-])cc1)C(Cl)Cl` [chloramphenicol], the results for the “Diameter of inhibition zone” value in the test with Escherichia coli, in the test on Staphylococcus aureus and in the test on Vibrio alginolyticus were 17 mm, 16 mm and 26 mm, respectively.

Values taken from patent US12404486B1, “Aspergillus oryzae JAAS-32 and use thereof in preparation of larval Hermetia illucens paste protein peptide” (Jiangsu Academy of Agricultural Sciences, priority 2024, dated 2025).
